What all share (format): biochemical
Assay [1] concerns the target CDK1/Cyclin B1 (Homo sapiens, UniProt P06493). Nature of the assay: CDK1/Cyclin B1 kinase assay (Nanosyn, Caliper microfluidic). Particulars: 12-point dose-response, ATP at Km (40 μM), 3 hr. As to the method:
(§1) Selected compounds disclosed herein were tested in kinase assays by Nanosyn (Santa Clara, Calif.) to determine their inhibitory effect on selected CDKs. The assays were performed using microfluidic kinase detection technology (Caliper Assay Platform). The compounds were tested in 12-point dose-response format in singlicate at Kmfor ATP. Phosphoacceptor substrate peptide concentration used was 1 μM for all assays and Staurosporine was used as the reference compound for all assays. Specifics of each assay are as described below: CDK1/Cyclin B1: Enzyme concentration: 0.08 nM; ATP concentration: 40 μM; Incubation time: 3 hr.

The target in assay [2] is CDK2/Cyclin A (Homo sapiens, UniProt P24941). Nature of the assay: CDK2/Cyclin A kinase assay (Nanosyn, Caliper microfluidic). The settings on record: 12-point dose-response, ATP at Km (50 μM), 3 hr. As to the method: as §1, with “CDK2/Cyclin A:” for “CDK1/Cyclin B1:”, “0.1” for “0.08”, “50” for “40”
Assay [3] addresses CDK2/Cyclin E (Homo sapiens, UniProt P24941). The assay is described as follows: CDK2/Cyclin E kinase assay (Nanosyn, Caliper microfluidic). The settings on record: 12-point dose-response, ATP at Km (100 μM), 3 hr. As to the method:
as §1, with “CDK2/Cyclin E:” for “CDK1/Cyclin B1:”, “0.15” for “0.08”, “100” for “40”

The target in assay [4] is CDK3/Cyclin E (Homo sapiens, UniProt Q00526). The assay is described as follows: CDK3/Cyclin E kinase assay (Nanosyn, Caliper microfluidic). The settings on record: 12-point dose-response, ATP at Km (400 μM), 3 hr. As to the method:
as §1, with “CDK3/Cyclin E:” for “CDK1/Cyclin B1:”, “1” for “0.08”, “400” for “40”

Assay [5] deals with CDK4/Cyclin D1 (Homo sapiens, UniProt P11802). The assay is described as follows: CDK4/Cyclin D1 kinase assay (Nanosyn, Caliper microfluidic). Particulars: 12-point dose-response, ATP at Km (200 μM), 3 hr; Table 4. As to the method: as §1, with “CDK4/Cyclin D1:” for “CDK1/Cyclin B1:”, “1” for “0.08”, “200” for “40”
CDK4/Cyclin D1, sequence (P11802 whole entry): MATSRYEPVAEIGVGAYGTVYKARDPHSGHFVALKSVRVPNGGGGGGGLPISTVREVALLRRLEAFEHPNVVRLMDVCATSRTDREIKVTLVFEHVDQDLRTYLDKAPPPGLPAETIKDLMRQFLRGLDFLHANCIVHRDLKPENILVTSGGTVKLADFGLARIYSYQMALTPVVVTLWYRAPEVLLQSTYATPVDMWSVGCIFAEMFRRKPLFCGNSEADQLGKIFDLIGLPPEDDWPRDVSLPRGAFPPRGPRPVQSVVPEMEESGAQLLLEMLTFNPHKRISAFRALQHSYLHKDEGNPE
CDK4/Cyclin D1, sequence (P24385 whole entry partner): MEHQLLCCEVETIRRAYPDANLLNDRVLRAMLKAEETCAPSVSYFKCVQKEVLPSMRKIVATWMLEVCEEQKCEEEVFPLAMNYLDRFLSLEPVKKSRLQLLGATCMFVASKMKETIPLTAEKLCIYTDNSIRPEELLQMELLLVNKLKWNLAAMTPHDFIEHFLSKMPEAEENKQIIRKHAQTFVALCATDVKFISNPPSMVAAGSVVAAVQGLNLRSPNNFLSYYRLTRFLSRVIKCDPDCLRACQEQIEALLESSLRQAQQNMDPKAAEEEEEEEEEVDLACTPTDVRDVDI
The target in assay [6] is CDK5/p35 (Homo sapiens, UniProt Q00535). Nature of the assay: CDK5/p35 kinase assay (Nanosyn, Caliper microfluidic). The settings on record: 12-point dose-response, ATP at Km (20 μM), 3 hr. As to the method:
as §1, with “CDK5/p35:” for “CDK1/Cyclin B1:”, “0.05” for “0.08”, “20” for “40”

Assay [7] addresses CDK5/p25 (Homo sapiens, UniProt Q00535). Nature of the assay: CDK5/p25 kinase assay (Nanosyn, Caliper microfluidic). The settings on record: 12-point dose-response, ATP at Km (20 μM), 3 hr. As to the method: as §1, with “CDK5/p25:” for “CDK1/Cyclin B1:”, “0.1” for “0.08”, “20” for “40”
For assay [8], the target named is CDK6/Cyclin D3 (Homo sapiens, UniProt Q00534). The assay is described as follows: CDK6/Cyclin D3 kinase assay (Nanosyn, Caliper microfluidic). Particulars: 12-point dose-response, ATP at Km (300 μM), 3 hr. As to the method: as §1, with “CDK6/Cyclin D3:” for “CDK1/Cyclin B1:”, “2” for “0.08”, “300” for “40”
CDK6/Cyclin D3, sequence (Q00534 whole entry): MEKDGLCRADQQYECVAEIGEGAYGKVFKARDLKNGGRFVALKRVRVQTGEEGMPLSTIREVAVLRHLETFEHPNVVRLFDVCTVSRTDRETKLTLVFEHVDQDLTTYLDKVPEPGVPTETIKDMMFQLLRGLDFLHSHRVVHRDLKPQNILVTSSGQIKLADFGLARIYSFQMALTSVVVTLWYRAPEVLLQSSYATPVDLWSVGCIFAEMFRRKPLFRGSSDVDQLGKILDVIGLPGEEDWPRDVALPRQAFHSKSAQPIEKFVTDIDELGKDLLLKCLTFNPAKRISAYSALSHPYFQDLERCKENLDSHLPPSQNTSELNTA
CDK6/Cyclin D3, sequence (P30281 whole entry partner): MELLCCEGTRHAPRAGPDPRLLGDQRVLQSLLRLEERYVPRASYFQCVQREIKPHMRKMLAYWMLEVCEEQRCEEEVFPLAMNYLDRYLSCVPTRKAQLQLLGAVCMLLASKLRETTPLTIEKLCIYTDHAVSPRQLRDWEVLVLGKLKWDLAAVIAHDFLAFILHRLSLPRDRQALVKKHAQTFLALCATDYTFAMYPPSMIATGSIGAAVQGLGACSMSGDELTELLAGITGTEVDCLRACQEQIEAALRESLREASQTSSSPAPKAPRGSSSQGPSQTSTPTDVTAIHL
In assay [9] the target is CDK7/Cyclin H (Homo sapiens, UniProt P50613). The assay is described as follows: CDK7/Cyclin H kinase assay (Nanosyn, Caliper microfluidic). Particulars: 12-point dose-response, ATP at Km (50 μM), 17 hr. As to the method:
as §1, with “CDK7/Cyclin H:” for “CDK1/Cyclin B1:”, “10” for “0.08”, “50” for “40”, “17” for “3”

In assay [10] the target is CDK9/Cyclin T (Homo sapiens, UniProt P50750). Nature of the assay: CDK9/Cyclin T kinase assay (Nanosyn, Caliper microfluidic). The settings on record: 12-point dose-response, ATP at Km (10 μM), 17 hr; Table 5. As to the method: as §1, with “[…]:” for “CDK1/Cyclin B1:”, “5” for “0.08”, “10” for “40”, “17” for “3”
CDK9/Cyclin T, sequence (P50750 whole entry): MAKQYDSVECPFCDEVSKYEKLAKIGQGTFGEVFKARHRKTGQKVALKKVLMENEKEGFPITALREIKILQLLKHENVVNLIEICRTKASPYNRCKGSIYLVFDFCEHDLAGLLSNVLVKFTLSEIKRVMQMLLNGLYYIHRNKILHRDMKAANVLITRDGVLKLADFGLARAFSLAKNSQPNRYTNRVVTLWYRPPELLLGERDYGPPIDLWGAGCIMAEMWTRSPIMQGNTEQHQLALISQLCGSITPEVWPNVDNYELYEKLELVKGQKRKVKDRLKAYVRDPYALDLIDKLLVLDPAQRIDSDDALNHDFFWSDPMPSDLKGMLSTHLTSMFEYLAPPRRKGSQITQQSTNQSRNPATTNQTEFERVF
CDK9/Cyclin T, sequence (O60563 whole entry partner): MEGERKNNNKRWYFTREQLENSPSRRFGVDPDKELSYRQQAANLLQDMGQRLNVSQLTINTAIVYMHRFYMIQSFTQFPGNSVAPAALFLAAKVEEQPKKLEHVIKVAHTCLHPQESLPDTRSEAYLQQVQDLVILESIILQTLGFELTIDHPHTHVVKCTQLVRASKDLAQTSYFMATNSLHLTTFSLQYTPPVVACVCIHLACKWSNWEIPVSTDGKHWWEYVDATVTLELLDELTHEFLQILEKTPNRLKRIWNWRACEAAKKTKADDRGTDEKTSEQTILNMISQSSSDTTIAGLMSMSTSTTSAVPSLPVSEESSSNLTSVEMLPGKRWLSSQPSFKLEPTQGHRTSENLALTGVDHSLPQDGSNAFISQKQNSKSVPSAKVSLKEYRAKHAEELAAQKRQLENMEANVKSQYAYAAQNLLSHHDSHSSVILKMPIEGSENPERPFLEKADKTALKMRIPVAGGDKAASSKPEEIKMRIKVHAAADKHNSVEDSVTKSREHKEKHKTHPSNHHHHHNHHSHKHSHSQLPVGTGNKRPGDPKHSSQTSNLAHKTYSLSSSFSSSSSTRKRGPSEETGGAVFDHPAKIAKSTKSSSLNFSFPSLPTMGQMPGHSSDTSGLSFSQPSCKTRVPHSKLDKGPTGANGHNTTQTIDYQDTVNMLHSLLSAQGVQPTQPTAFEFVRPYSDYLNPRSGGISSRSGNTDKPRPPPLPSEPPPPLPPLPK

Structures are written as SMILES.

The term IC50 denotes the concentration that inhibits the measured activity by half. Read a low IC50 as inhibition by little substance.

CDK7/Cyclin H, sequence (P50613 whole entry): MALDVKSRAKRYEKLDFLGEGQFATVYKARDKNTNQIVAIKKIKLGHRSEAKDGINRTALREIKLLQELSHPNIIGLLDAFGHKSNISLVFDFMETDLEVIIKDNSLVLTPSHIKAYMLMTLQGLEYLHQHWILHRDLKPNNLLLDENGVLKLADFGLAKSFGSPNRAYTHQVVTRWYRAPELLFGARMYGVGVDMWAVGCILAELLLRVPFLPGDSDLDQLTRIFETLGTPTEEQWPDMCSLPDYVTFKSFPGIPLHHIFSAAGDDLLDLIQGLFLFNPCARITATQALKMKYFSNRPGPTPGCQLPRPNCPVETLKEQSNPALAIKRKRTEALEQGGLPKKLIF
CDK7/Cyclin H, sequence (P51946 whole entry partner): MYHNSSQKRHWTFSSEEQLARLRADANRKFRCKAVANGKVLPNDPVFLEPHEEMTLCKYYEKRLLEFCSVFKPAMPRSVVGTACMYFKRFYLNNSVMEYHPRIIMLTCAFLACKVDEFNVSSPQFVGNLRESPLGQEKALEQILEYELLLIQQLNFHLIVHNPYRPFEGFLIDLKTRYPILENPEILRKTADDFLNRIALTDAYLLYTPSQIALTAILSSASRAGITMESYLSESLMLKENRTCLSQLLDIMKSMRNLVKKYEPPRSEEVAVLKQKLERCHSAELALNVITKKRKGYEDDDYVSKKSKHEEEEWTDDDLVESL
CDK7/Cyclin H, sequence (P51948 whole entry partner): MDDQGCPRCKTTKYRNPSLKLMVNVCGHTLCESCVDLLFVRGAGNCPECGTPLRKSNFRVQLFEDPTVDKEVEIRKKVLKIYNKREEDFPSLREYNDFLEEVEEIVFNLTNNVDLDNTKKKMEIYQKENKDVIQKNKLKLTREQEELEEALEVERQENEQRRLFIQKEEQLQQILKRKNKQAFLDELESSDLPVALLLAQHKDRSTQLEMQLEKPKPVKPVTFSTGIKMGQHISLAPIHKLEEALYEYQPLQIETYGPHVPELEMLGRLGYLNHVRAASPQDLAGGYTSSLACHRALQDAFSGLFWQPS
CDK1/Cyclin B1, sequence (P06493 whole entry): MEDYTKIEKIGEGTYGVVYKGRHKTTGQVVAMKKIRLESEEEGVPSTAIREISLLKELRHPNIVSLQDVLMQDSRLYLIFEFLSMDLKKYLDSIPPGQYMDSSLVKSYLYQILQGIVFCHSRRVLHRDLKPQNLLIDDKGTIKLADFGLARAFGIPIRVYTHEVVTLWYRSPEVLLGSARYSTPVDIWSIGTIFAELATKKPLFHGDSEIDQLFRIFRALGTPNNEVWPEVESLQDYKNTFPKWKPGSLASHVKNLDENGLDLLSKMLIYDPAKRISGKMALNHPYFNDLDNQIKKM
CDK1/Cyclin B1, sequence (P14635 whole entry partner): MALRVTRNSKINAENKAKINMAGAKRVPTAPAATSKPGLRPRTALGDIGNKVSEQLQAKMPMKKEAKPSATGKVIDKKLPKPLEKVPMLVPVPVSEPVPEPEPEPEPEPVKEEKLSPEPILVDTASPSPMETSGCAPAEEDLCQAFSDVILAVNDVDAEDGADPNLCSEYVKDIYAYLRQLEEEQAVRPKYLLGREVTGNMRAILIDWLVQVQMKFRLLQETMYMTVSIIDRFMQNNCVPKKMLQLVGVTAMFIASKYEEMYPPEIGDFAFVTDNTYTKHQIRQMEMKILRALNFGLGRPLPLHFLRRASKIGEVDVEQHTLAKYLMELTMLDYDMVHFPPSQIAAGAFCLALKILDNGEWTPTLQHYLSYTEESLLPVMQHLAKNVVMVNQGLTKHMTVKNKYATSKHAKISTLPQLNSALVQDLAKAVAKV
CDK5/p25, sequence (Q00535 whole entry): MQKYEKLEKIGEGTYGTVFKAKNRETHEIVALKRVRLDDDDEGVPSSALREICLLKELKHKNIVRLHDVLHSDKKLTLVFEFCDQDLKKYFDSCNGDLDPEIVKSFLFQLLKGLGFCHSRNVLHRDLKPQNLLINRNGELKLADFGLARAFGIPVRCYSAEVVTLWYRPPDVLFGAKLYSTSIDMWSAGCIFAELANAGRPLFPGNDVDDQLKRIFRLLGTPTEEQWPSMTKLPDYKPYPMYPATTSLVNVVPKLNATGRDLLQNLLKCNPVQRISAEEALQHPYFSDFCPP
CDK5/p25, sequence (Q15078 99-307 partner limits assumed): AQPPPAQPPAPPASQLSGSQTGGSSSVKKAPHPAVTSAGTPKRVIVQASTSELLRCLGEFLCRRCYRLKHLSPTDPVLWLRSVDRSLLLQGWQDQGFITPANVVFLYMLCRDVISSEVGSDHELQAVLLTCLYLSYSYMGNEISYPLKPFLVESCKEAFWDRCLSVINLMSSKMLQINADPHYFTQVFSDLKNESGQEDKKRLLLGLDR

As for `O=C1NCC2(CCCCC2)n2c1cc1cnc(N[C@H]3Cc4ccccc4NC3=O)nc12` [Compound 27, (S)-2′-((2-oxo-1,2,3,4-tetrahydroquinolin-3-yl)amino)-7′,8′-dihydro-6′H-spiro[cyclohexane-1,9′-pyrazino[1′,2′:1,5]pyrrolo[2,3-d]pyrimidin]-6′-one], the IC50 in assay [1] amounted to 8.9 µM; in assay [2], 8 µM; in [3] it was 11 µM; in assay [4], 26 µM; in [5], 0.27 µM; in [6], 10 µM. Also, the IC50 worked out at 9.6 µM in assay [7], 0.97 µM in [8], 14 µM in assay [9] and 0.56 µM in assay [10].
Turning to `C1=NCC2(CCCCC2)n2c1cc1cnc(N[C@@H]3CCCNC3)nc12` [Compound 51, (R)-N-(piperidin-3-yl)-8′H-spiro[cyclohexane-1,9′-pyrazino[1′,2′:1,5]pyrrolo[2,3-d]pyrimidin]-2′-amine], the IC50 amounted to 1.6 µM in assay [1]; 0.9 µM in assay [2]; 0.49 µM in assay [3]; 0.61 µM in [4]; 0.29 µM in assay [5]; 1.5 µM in assay [6]. For the same molecule, the IC50 in assay [7] turned out to be 1.5 µM; in assay [8] it was 1.1 µM; in assay [9], 0.23 µM; in [10], 0.2 µM.
`O=C1NCC2(CCCCC2)n2c1cc1cnc(N[C@H]3CCCN[C@@H]3c3ccccc3)nc12` [Compound 10, 2′-(((2R,3S)-2-phenylpiperidin-3-yl)amino)-7′,8′-dihydro-6′H-spiro[cyclohexane-1,9′-pyrazino[1′,2′:1,5]pyrrolo[2,3-d]pyrimidin]-6′-one]: the 50% inhibitory concentration (IC50) is 8.8 µM in assay [1]; 3.6 µM in assay [2]; 5.7 µM in [3]; 16 µM in [4]; 0.036 µM in [5]; 9.7 µM in [6]. In addition, the concentration for half-maximal inhibition (IC50) in [7] was 11 µM; in [8], 1.2 µM; in [9] it was 1.8 µM; in assay [10], 0.08 µM.
As to `O=C1NCC2(CCCCC2)n2c1cc1cnc(N[C@H]3CC[C@H](NCc4ccccc4F)CC3)nc12` [Compound 20, 2′-(((1,4-trans)-4-((2-fluorobenzyl)amino)cyclohexyl)amino)-7′,8′-dihydro-6′H-spiro[cyclohexane-1,9′-pyrazino[1′,2′:1,5]pyrrolo[2,3-d]pyrimidin]-6′-one], the IC50 was found to be 0.36 µM in [1]; 0.18 µM in assay [2]; 0.31 µM in assay [3]; 0.4 µM in [4]; 0.014 µM in [5]; 0.37 µM in assay [6]. In addition, the IC50 in assay [7] stood at 0.37 µM; in assay [8] it was 0.078 µM; in assay [9] it was 0.23 µM; in assay [10], 0.0047 µM.
For the molecule `S=C1NCC2(CCCCC2)n2c1cc1cnc(N[C@@H]3CCCNC3)nc12` [Compound 41, (R)-2′-(piperidin-3-ylamino)-7′,8′-dihydro-6′H-spiro[cyclohexane-1,9′-pyrazino[1′,2′:1,5]pyrrolo[2,3-d]pyrimidine]-6′-thione], the concentration for half-maximal inhibition (IC50) in [1] came out at 0.33 µM; in [2], 0.15 µM; in assay [3], 0.31 µM; in [4], 0.21 µM; in [5], 0.0067 µM; in [6] it was 1.1 µM. For the same molecule, the IC50 in assay [7] is 0.97 µM; in assay [8] it was 0.023 µM; in [9], 0.085 µM; in assay [10], 0.0043 µM.
As to `O=C1NCC2(CCCCC2)n2c1cc1cnc(N[C@H]3CC[C@H](Nc4ncc(F)cn4)CC3)nc12` [Compound 19, 2′-(((1,4-trans)-4-((5-fluoropyrimidin-2-yl)amino)cyclohexyl)-12-azaneyl)-7′,8′-dihydro-6′H-spiro[cyclohexane-1,9′-pyrazino[1′,2′:1,5]pyrrolo[2,3-d]pyrimidin]-6′-one], the IC50 in [1] was 0.096 µM; in [2], 0.071 µM; in [3] it was 0.11 µM; in [4], 0.22 µM; in assay [5], 0.0086 µM; in assay [6], 0.12 µM. The IC50 in assay [7] is 0.12 µM; in assay [8] it was 0.075 µM; in assay [9] it was 0.74 µM; in assay [10], 0.0021 µM.
Turning to `O=C1NCC2(CCCCC2)n2c1cc1cnc(NC(=O)[C@H]3CNCC[C@H]3c3ccccc3)nc12` [Compound 28, (3R,4R)-N-(6′-oxo-7′,8′-dihydro-6′H-spiro[cyclohexane-1,9′-pyrazino[1′,2′:1,5]pyrrolo[2,3-d]pyrimidin]-2′-yl)-4-phenylpiperidine-3-carboxamide], the IC50 in [1] is 93 µM; in [2], 67 µM; in assay [3] it was above 100 µM; in assay [4], above 100 µM; in assay [5], 9 µM; in assay [6] it was above 100 µM. Also, the IC50 in [7] is above 100 µM; in assay [8], above 100 µM; in assay [9], above 100 µM; in assay [10], 0.24 µM.

(Values after patent publication US20200331925A1, “HETEROCYCLIC COMPOUNDS FOR THE TREATMENT OF ABNORMAL CELLULAR PROLIFERATION” (G1 Therapeutics, Inc., priority 2018, published 2020).)
